In patent US10889564B2, “Tetrahydroindazoles and medical uses thereof” (Genase Therapeutics B.V., priority 2015, dated 2021):

What was measured:
[1] = target: T1, human dihydroorotate dehydrogenase (DHODH) (Homo sapiens (Human), UniProt Q02127); experiment: DHODH enzyme assay, Assay B (DCIP absorbance, 384 well); format: biochemical; conditions: 4 nM recombinant human DHODH
Experimental: (§1) Inhibition of human dihydroorotate dehydrogenase (DHODH) by example compounds as described herein was determined using one of two assays as described below.
Example compounds as described herein were dispensed with an acoustic liquid handler, Echo 550 (Labcyte) to a maximum volume of 50 nl per well in a 384 well plate. DHODH enzyme assays were performed with 4 nM recombinant human DHODH (purified essentially as described by Walse et. al., Biochemistry, 47, 8929-8936 (2008)). The reaction mixture consisted of 2 mM DL-dihydroorotic acid (#D7003, Sigma-Aldrich), 100 μM 3,4-dimethoxy-5-methyl-p-benzoquinone (#D9150, Sigma-Aldrich), and 200 μM 2,6-dichlorophenolindophenol sodium salt (DCIP) (#D1878, Sigma-Aldrich) in enzyme buffer (50 mM Tris-HCl pH 8.0, 0.1% Triton X-100, 150 mM KCl) in a final volume of 50 μl per well. A stock solution of 80 mM DCIP was prepared in DMSO just before use. Loss in absorbance by chromogen DCIP was measured at 595 nm at RT every 2 min for an hour with a plate reader (Envision, Perkin Elmer).

[2] = test system: ARN8 melanoma cells; experiment: Sulforhodamine B assay of cancer cell growth and/or viability; format: cell-based; conditions: 72 hours; for viability at 2 µM: ARN8
Experimental: ARN8 melanoma cells are seeded at a density of 500 cells per well of a 96 well plate. Following 24 hours of incubation, cells are treated with increasing concentrations of the compound of Example 8 in the absence or presence of excess uridine (100 micromolar). Cells are incubated for 72 hours after which the growth medium is removed from the cells and replaced by […] of 1× sterile PBS and 50 μL of 40% trichloroacetic acid in dH2O. Samples are incubated at 4° C. for 1 h to fix the cells. The plate is then washed with 3 changes of water with all liquid allowed to drain from the plate. […] of 0.1% sulforhodamine B in 1% acetic acid in H2O is added to each well and incubated for 30 minutes. Excess dye is washed out with three changes of 1% acetic acid in H2O with all liquid allowed to drain from the plate. The remaining dye is solubilized in 100 microliters of 10 mM un-buffered basic Tris per well and absorbance read at 570 nm.

[3] = target: T1, human dihydroorotate dehydrogenase (DHODH); experiment: DHODH enzyme assay, Assay A (DCIP absorbance); format: biochemical; conditions: 6 nM recombinant human DHODH
Experimental: as §1
DHODH enzyme assays were performed with 6 nM recombinant human DHODH (purified essentially as described by Walse et. al., Biochemistry, 47, 8929-8936 (2008)). The reaction mixture consisted of 1 mM DL-dihydroorotic acid (#D7003, Sigma-Aldrich), 100 μM 3,4-dimethoxy-5-methyl-p-benzoquinone (#D9150, Sigma-Aldrich), and 100 μM 2,6-dichlorophenolindophenol sodium salt (DCIP) (#D1878, Sigma-Aldrich) in enzyme buffer (50 mM Tris-HCl pH 8.0, 0.1% Triton X-100, 150 mM KCl). A stock solution of 20 mM DCIP was prepared in enzyme buffer and filtered through Whatman paper just before use. Loss in absorbance by chromogen DCIP was measured at 595 nm at RT every 3 min for an hour.

T1 sequence (Q02127 29-395): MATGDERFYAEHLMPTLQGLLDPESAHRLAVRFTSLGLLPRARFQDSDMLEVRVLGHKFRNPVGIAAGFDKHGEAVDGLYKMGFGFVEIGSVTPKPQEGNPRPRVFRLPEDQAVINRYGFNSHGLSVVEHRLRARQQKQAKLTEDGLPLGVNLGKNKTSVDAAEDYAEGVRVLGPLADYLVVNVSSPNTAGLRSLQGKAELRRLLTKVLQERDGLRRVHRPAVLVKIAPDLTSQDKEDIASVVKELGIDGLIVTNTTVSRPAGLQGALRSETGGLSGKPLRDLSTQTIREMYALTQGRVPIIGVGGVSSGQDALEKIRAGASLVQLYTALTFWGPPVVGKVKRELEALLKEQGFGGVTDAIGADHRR

Row | IC50 [1] [µM] | Structure (SMILES) | other results
1 | 0.009 | O=C(N[C@@H]1CCCc2c1cnn2-c1ccccc1F)c1onc2c1CCCC2 [Example 14, N-[(4R)-1-(2-fluorophenyl)-4,5,6,7-tetrahydro-1H-indazol-4-yl]-4,5,6,7-tetrahydro-2,1-benzoxazole-3-carboxamide] | –
2 | 0.881 | Cc1ccccc1-n1ncc2c1CCC[C@H]2NC(=O)c1cccnc1O [Example 21, 2-hydroxy-N-[(4R)-1-(2-methylphenyl)-4,5,6,7-tetrahydro-1H-indazol-4-yl]pyridine-3-carboxamide] | –
3 | – | Cc1cc(C(=O)NC2CCCc3c2cnn3-c2ccc(C)c(C)c2)no1 (centres unmarked) [Example 6, N-[1-(3,4-dimethylphenyl)-4,5,6,7-tetrahydro-1H-indazol-4-yl]-5-methyl-3-isoxazolecarboxamide] | viability at 2 µM ([2]; absence of excess uridine): 105%; IC50 [3]: 5.83 µM
4 | 0.096 | Cc1ccccc1-n1ncc2c1CCC[C@H]2NC(=O)c1ncccc1C [Example 26, 3-methyl-N-[(4R)-1-(2-methylphenyl)-4,5,6,7-tetrahydro-1H-indazol-4-yl]pyridine-2-carboxamide] | –
5 | 2.08 | COc1cc(C(=O)N[C@@H]2CCCc3c2cnn3-c2ccccc2F)nc2ccccc12 [Example 38, (R)—N-(1-(2-fluorophenyl)-4,5,6,7-tetrahydro-1H-indazol-4-yl)-4-methoxyquinoline-2-carboxamide] | –
6 | > 3 | Cc1cccc(C(=O)N[C@@H]2CCCc3c2cnn3-c2ccccc2C)n1 [Example 45, 6-methyl-N-[(4R)-1-(2-methylphenyl)-4,5,6,7-tetrahydro-1H-indazol-4-yl]pyridine-2-carboxamide] | –
7 | – | O=C(NC1CCCc2c1cnn2-c1ccc(F)cc1F)c1onc2c1CCCC2 (centres unmarked) [Example 5, N-(1-(2,4-difluorophenyl)-4,5,6,7-tetrahydro-1H-indazol-4-yl)-4,5,6,7-tetrahydrobenzo[c]isoxazole-3-carboxamide] | viability at 2 µM ([2]; absence of excess uridine): 22%; IC50 [3]: 0.29 µM
8 | 0.735 | Cc1cnc(C(=O)N[C@@H]2CCCc3c2cnn3-c2ccccc2F)cn1 (single isomer, unassigned) [Example 15, N-[(4R*)-1-(2-fluorophenyl)-4,5,6,7-tetrahydro-1H-indazol-4-yl]-5-methylpyrazine-2-carboxamide] | –
9 | 0.088 | O=C(N[C@@H]1CCCc2c1cnn2-c1ccccc1F)c1nc2ccccc2o1 [Example 33, N-[(4R)-1-(2-fluorophenyl)-4,5,6,7-tetrahydro-1H-indazol-4-yl]-1,3-benzoxazole-2-carboxamide] | –
10 | – | O=C(NC1CCCc2c1cnn2-c1ccccc1F)c1onc2c1CCCC2 (centres unmarked) [Example 8, N-(1-(2-fluorophenyl)-4,5,6,7-tetrahydro-1H-indazol-4-yl)-4,5,6,7-tetrahydrobenzo[c]isoxazole-3-carboxamide] | ARN8 melanoma cell growth and/or viability ([2]; absence of excess uridine, FIG. 2): reduces ARN8 melanoma cell growth and/or viability; effect on ARN8 melanoma cell growth and/or viability with excess uridine ([2]; excess uridine (100 micromolar), FIG. 2): largely prevented by the addition of excess uridine; viability at 2 µM ([2]; absence of excess uridine): 48%; IC50 [3]: 0.032 µM
11 | 0.018 | O=C(N[C@@H]1CCCc2c1cnn2-c1ccccc1F)c1noc2ccccc12 [Example 28, N-[(4R)-1-(2-fluorophenyl)-4,5,6,7-tetrahydro-1H-indazol-4-yl]-1,2-benzoxazole-3-carboxamide] | –
12 | 0.441 | Cc1ccnc(C(=O)NC2CCCc3c2cnn3-c2ccccc2)c1 (centres unmarked) [Example 43, 4-methyl-N-(1-phenyl-4,5,6,7-tetrahydro-1H-indazol-4-yl)pyridine-2-carboxamide] | –
13 | – | O=C(NC1CCCc2c1cnn2-c1ccccc1F)c1cscn1 (centres unmarked) [Example 4, N-[1-(2-fluorophenyl)-4,5,6,7-tetrahydro-1H-indazol-4-yl]-1,3-thiazole-4-carboxamide] | viability at 2 µM ([2]; absence of excess uridine): 52%; IC50 [3]: 1.11 µM
14 | 0.22 | O=C(N[C@@H]1CCCc2c1cnn2-c1cccc(C(=O)N2CCOCC2)c1)c1noc2c1CCCC2 [Example 53, N-[(4R)-1-[3-(morpholine-4-carbonyl)phenyl]-4,5,6,7-tetrahydro-4H-indazol-4-yl]-4,5,6,7-tetrahydro-1,2-benzoxazole-3-carboxamide] | –
15 | 0.355 | Cc1ccccc1-n1ncc2c1CCC[C@H]2NC(=O)c1ccccn1 [Example 20, N-[(4R)-1-(2-methylphenyl)-4,5,6,7-tetrahydro-1H-indazol-4-yl]pyridine-2-carboxamide] | –
16 | – | O=C(N[C@@H]1CCCc2c1cnn2-c1ccccc1F)c1ccccn1 [Example 3, (R)—N-(1-(2-fluorophenyl)-4,5,6,7-tetrahydro-1H-indazol-4-yl)picolinamide] | viability at 2 µM ([2]; absence of excess uridine): 30%
17 | 0.006 | O=C(N[C@@H]1CCCc2c1cnn2-c1ccccc1F)c1ncn2c1CCCC2 [Example 46, (R)—N-(1-(2-fluorophenyl)-4,5,6,7-tetrahydro-1H-indazol-4-yl)-5,6,7,8-tetrahydroimidazo[1,5-a]pyridine-1-carboxamide] | –
18 | 0.136 | Cc1ccccc1-n1ncc2c1CCC[C@H]2NC(=O)c1sccc1C [Example 19, 3-methyl-N-[(4R)-1-(2-methylphenyl)-4,5,6,7-tetrahydro-1H-indazol-4-yl]thiophene-2-carboxamide] | –
19 | 0.011 | CC(C)OC(=O)c1cccc(-n2ncc3c2CCC[C@H]3NC(=O)c2noc3c2CCCC3)c1 [Example 52, Propan-2-yl-3-[(4R)-4-(4,5,6,7-tetrahydro-1,2-benzoxazole-3-amido)-4,5,6,7-tetrahydro-1H-indazol-1-yl]benzoate] | –
20 | – | COC(=O)c1ccc(C(=O)NC2CCCc3c2cnn3-c2cc(F)cc(F)c2)nc1 (centres unmarked) [Example 9, Methyl 6-({[1-(3,5-difluorophenyl)-4,5,6,7-tetrahydro-1H-indazol-4-yl]amino}carbonyl)nicotinate] | viability at 2 µM ([2]; absence of excess uridine): 8%; IC50 [3]: > 10 µM
21 | – | CSc1nc(C(=O)NC2CCCc3c2cnn3-c2ccc(F)cc2F)cs1 (centres unmarked) [Example 11, N-[1-(2,4-difluorophenyl)-4,5,6,7-tetrahydro-1H-indazol-4-yl]-2-(methylthio)-1,3-thiazole-4-carboxamide] | viability at 2 µM ([2]; absence of excess uridine): 93%; IC50 [3]: 8.2 µM
22 | 0.124 | Cc1ccccc1-n1ncc2c1CCC[C@H]2NC(=O)c1cc2ccccc2o1 [Example 17, N-[(4R)-1-(2-methylphenyl)-4,5,6,7-tetrahydro-1H-indazol-4-yl]-1-benzofuran-2-carboxamide] | –
23 | 2.67 | O=C(N[C@@H]1CCCc2c1cnn2-c1ccccc1F)c1cc2ccccc2[nH]1 [Example 35, N-[(4R)-1-(2-fluorophenyl)-4,5,6,7-tetrahydro-1H-indazol-4-yl]-1H-indole-2-carboxamide] | –
24 | – | O=C(N[C@H]1CCCc2c1cnn2-c1ccccc1F)c1ccccn1 [Example 2, (S)—N-(1-(2-Fluorophenyl)-4,5,6,7-tetrahydro-1H-indazol-4-yl)picolinamide] | viability at 2 µM ([2]; absence of excess uridine): 100%
25 | 0.459 | Cc1ccccc1-n1ncc2c1CCC[C@H]2NC(=O)c1oc2ccccc2c1C [Example 18, 3-methyl-N-[(4R)-1-(2-methylphenyl)-4,5,6,7-tetrahydro-1H-indazol-4-yl]-1-benzofuran-2-carboxamide] | –
26 | 2 | O=C(N[C@@H]1CCCc2c1cnn2-c1ccccc1F)c1ccc(C(F)(F)F)cn1 [Example 40, N-[(4R)-1-(2-fluorophenyl)-4,5,6,7-tetrahydro-1H-indazol-4-yl]-5-(trifluoromethyl)pyridine-2-carboxamide] | –
27 | 0.066 | Cc1ccc(C(=O)N[C@@H]2CCCc3c2cnn3-c2ccccc2C)nc1 [Example 24, 5-methyl-N-[(4R)-1-(2-methylphenyl)-4,5,6,7-tetrahydro-1H-indazol-4-yl]pyridine-2-carboxamide] | –
